The values below come from article PMC12044458 (ACS Omega, 2025).

For experiment [1], the system named is Poly(I:C) HMW (RNA, polymer, hypoxanthine (inosine) in place of every G of strand 1 (polyinosinic acid)) G/C. Nature of the experiment: UV melting. Particulars: PBS, 0 mM Mg2+, derived from two Tm (67 and 67), compound concentration not in material, per base.
The subject of experiment [2] is Poly(I:C) Na^+ (RNA, polymer, hypoxanthine (inosine) in place of every G of strand 1 (polyinosinic acid)) G/C. Put plainly: UV melting. Particulars: PBS, 0 mM Mg2+, derived from two Tm (64 and 65), compound concentration not in material, per base.

In the case of `CN(C)[C@@H]1C(=O)C(C(N)=O)=C(O)[C@@]2(O)C(=O)C3=C(O)c4c(O)cccc4[C@@](C)(O)[C@H]3C[C@@H]12`, the entries for the “melting temperature shift (ΔTm)” value in experiment [1] and in experiment [2] were 0 °C and -1 °C, respectively.
